In brackets after ≈: the same amount, converted by molar mass. Like-named read-outs stand apart in the source and are kept apart here.
How the values were obtained:
[1] = test system: log phase and stationary phase B. burgdorferi culture; test: Antibiotic exposure assay, SYBR Green I/PI (drugs alone and combinations); details: for viability at 10 µg/mL: Borreliella burgdorferi, 168 h
Method: (§1) To qualitatively determine the effect of antibiotics, 10 μL of each compound from the pre-diluted plate or pre-diluted stock was added to stationary phase B. burgdorferi culture in the 96-well plate. The final volume per well was adjusted to 100 μL at a concentration of 10 μg/mL for each antibiotic. Plates were sealed and placed in a 33° C. incubator for 7 days. The SYBR Green I/PI viability assay was used to assess the live and dead cells after antibiotic exposure as described (Feng, Wang, Shi, et al., 2014). Briefly, 10 μL of SYBR Green I (10,000×stock, Invitrogen) was mixed with 30 μL propidium iodide (PI, 20 mM) into 1.0 mL of sterile dH2O. Then, 10 μL of staining mixture was added to each well and mixed thoroughly. The plates were incubated at room temperature in the dark for 15 minutes followed by plate reading at excitation wavelength at 485 nm and the fluorescence intensity at 535 nm (green emission) and 635 nm (red emission) in microplate reader (HTS 7000 plus Bio Assay Reader, PerkinElmer Inc., USA). With least-square fitting analysis, the regression equation and regression curve of the relationship between percentage of live bacteria and green/red fluorescence ratios was obtained. The regression equation was used to calculate the percentage of live cells in each well of the 96-well plate.
To qualitatively determine the effect of antibiotics, 10 μL of each compound (final concentration 50 μM) from the pre-diluted plate or pre-diluted stock was added to round body form or stationary phase B. burgdorferi culture in the 96-well plate. The final volume per well was adjusted to 100 μL. Plates were sealed and placed in a 33° C. incubator for 7 days. The SYBR Green I/PI viability assay was used to assess the live and dead cells after antibiotic exposure as described (Feng, Wang, Shi, et al., 2014). Briefly, 10 μL of SYBR Green I (10,000×stock, Invitrogen) was mixed with 30 μL propidium iodide (PI, 20 mM, Sigma-Aldrich) into 1.0 mL of sterile dH2O. Then, 10 μL staining mixture was added to each well and mixed thoroughly. The plates were incubated at room temperature in the dark for 15 minutes followed by plate reading at excitation wavelength at 485 nm and the fluorescence intensity at 535 nm (green emission) and 635 nm (red emission) in microplate reader (HTS 7000 plus Bio Assay Reader, PerkinElmer Inc., USA). With least-square fitting analysis, the regression equation and regression curve of the relationship between percentage of live and dead bacteria as shown in green/red fluorescence ratios was obtained. The regression equation was used to calculate the percentage of live cells in each well of the 96-well plate.
Round body form and ten day old stationary phase (in brackets) B. burgdorferi culture was treated with 10 μg/mL drugs or their combinations for 7 days. Residual viable B. burgdorferi was calculated according to the regression equation and ratio of Green/Red fluorescence obtained by SYBR Green I/PI assay as described (Feng, Wang, Shi, et al., 2014). Direct microscopy counting was employed to rectify the results of the SYBR Green I/PI assay. […] Abbreviation: Dox, doxcycline; CefP, cefoperazone; DAP, daptomycin; CefM, cefmetazole; Scp, sulfachlorpyridazine; Art, artemisinin; Nft, nitrofurantoin.

[2] = test system: stationary phase B. burgdorferi persisters (strain B31); test: epifluorescence microscope counting after SYBR Green I/PI staining, FDA drug screen; details: Borreliella burgdorferi, 168 h, read-out: Residual viable cells (epifluorescence microscope counting)
[3] = test system: stationary phase B. burgdorferi persisters (strain B31); test: SYBR Green I/PI viability assay (plate reader), FDA-approved drug library screen; details: for Ratio of Green/Red fluorescence, Primary screening / Ratio of Green/Red fluorescence, Rescreening (first column) / Ratio of Green/Red fluorescence, Rescreening (second column): 50 μM, 7 days, stationary phase; for viability at 50 µM: Borreliella burgdorferi, 168 h, read-out: Residual viable cells (regression equation, SYBR Green I/PI assay)
[4] = test system: E. coli strains (W3110, UTI89, CFT073, KTE181); test: Rapid SYBR Green/PI antibiotic susceptibility test; assay type: cell-based, Escherichia coli; details: for percent killed, sensitive strain W3110: ampicillin 100 μg/mL, others 25 μg/mL; for percent killed, resistant strain KTE181: ampicillin 100, trimethoprim 25, streptomycin 25 μg/mL; for cut-off (averaged proportion of killed cells) for resistant strains / cut-off (averaged proportion of killed cells) for susceptible strains: ampicillin, trimethoprim 5 μg/mL
[5] = test system: B. burgdorferi (growing, strain B31); test: MIC determination, standard microdilution method; assay type: cell-based, Borrelia burgdorferi; details: for sensitivity of log phase / multiplying B. burgdorferi (words, FIG. 12): MIC test
[6] = test system: B. burgdorferi log and stationary phase cultures; test: epi-fluorescence microscope counting after antibiotic exposure (persister frequency, planktonic forms); assay type: cell-based, Borrelia burgdorferi; details: 10-day-old stationary phase culture, 10 μg/mL, 7 days, FIG. 17A
Method: Specimens were examined on a Nikon Eclipse E800 microscope equipped with differential interference contrast (DIC) and epi-fluorescence illumination, and recorded with a Spot slider color camera. Cell proliferation assays were performed by direct counting using a bacterial counting chamber (Hausser Scientific Partnership) and DIC microscopy. SYBR Green I/PI assay was performed to assess the viability of B. burgdorferi. The ratio of live (green) and dead (red) B. burgdorferi was calculated by counting these cells using a bacterial counting chamber and epi-fluorescence microscopy. The three representative images of every sample were captured for quantitative analysis. Image Pro-Plus software was applied for measuring the biomass (fluorescence intensity) of different forms (spirochetes, round body, and microcolony) of B. burgdorferi as previously described (Shopov and Williams, 2000).
as §1
Therefore, the frequency of B. burgdorferi persisters in log phase and stationary phase cultures was assessed using the SYBR Green I/PI viability assay after exposure of the cultures to antimicrobials. E. coli culture was used as a control after exposure to antibiotics to validate the SYBR Green I/PI viability assay for persister frequency assessment.

[7] = test system: round body form of B. burgdorferi; test: SYBR Green I/PI assay on amoxicillin-induced round body form; details: for viability at 50 µM: Borreliella burgdorferi, 168 h, read-out: Residual viable cells (SYBR Green I/PI assay)
[8] = test system: stationary phase B. burgdorferi; test: Subculture test of drug-treated stationary phase B. burgdorferi; assay type: cell-based, Borrelia burgdorferi
Method: Seven-day-old B. burgdorferi culture (1×10^7 spirochetes/mL) (500 μL) was treated with drugs or drug combinations in Eppendorf tubes. After incubation at 33° C. for 7 days without shaking, the cells were collected by centrifugation and rinsed with 1 mL fresh BSK-H medium followed by resuspension in 500 μL fresh BSK-H medium without antibiotics. Then 50 μL of cell suspension was transferred to 1 mL fresh BSK-H medium for subculture at 33° C. for 2 weeks. Cell proliferation was assessed using SYBR Green I/PI assay and bacterial counting chamber (Hausser Scientific Partnership) by microscopy as described above.

[9] = test system: round body form of B. burgdorferi; test: Subculture test of drug-treated round body form
Method: For induction of round body form of B. burgdorferi, B. burgdorferi spirochetes (1×10^5 spirochetes/mL) were cultured in BKS-H medium for 6 days without shaking. After the 6-day incubation, amoxicillin at a final concentration of 50 μg/mL was added to the culture for round body form induction. After 72 h induction at 33° C., the round body forms of B. burgdorferi were examined by the microscopy. The round body cells (100 μL) were transferred to 96-well tissue culture microplates for evaluation of the effects of antibiotic treatment.

[10] = test system: B. burgdorferi (growing, strain B31); details: actively growing B. burgdorferi; Feng, Wang, Shi, et al., 2014; cited from earlier work
[11] = read-out: Live Cell % (residual viable B. burgdorferi)
[12] = read-out: Live Cell % (residual viable B. burgdorferi), ten-day-old stationary phase culture enriched with micro-colonies, 10 μg/mL each drug, 7 days
[13] = 10 μg/mL drugs or combinations, 7 days
[14] = 10 μg/mL, 7 days treatment, then subculture

## CN(C)c1cc(NC(=O)CNC(C)(C)C)c(O)c2c1C[C@H]1C[C@H]3[C@H](N(C)C)C(O)=C(C(N)=O)C(=O)[C@@]3(O)C(O)=C1C2=O [Tigecycline]
[1]; [11]
  viability at 10 µg/mL: 67%
[2]
  viability at 50 µM: 58%
[3]
  Ratio of Green/Red fluorescence, Primary screening: 6.98
  Ratio of Green/Red fluorescence, Rescreening (first column): 7.06
  Ratio of Green/Red fluorescence, Rescreening (second column): 6.96
  viability at 50 µM: 51%

## CC[C@H]1OC(=O)[C@H](C)[C@@H](O[C@H]2C[C@@](C)(OC)[C@@H](O)[C@H](C)O2)[C@H](C)[C@@H](O[C@@H]2O[C@H](C)C[C@H](N(C)C)[C@H]2O)[C@](C)(OC)C[C@@H](C)C(=O)[C@H](C)[C@@H](O)[C@]1(C)O [Clarithromycin]
[1]; [12]
  viability at 10 µg/mL: 63%
[2]
  viability at 50 µM: 70%
[3]
  Ratio of Green/Red fluorescence, Primary screening: 7.70
  Ratio of Green/Red fluorescence, Rescreening (first column): 7.36
  Ratio of Green/Red fluorescence, Rescreening (second column): 7.59
  viability at 50 µM: 65%

## [H]/N=C(/N)N[C@H]1[C@H](O)[C@@H](O)[C@H](O[C@@H]2O[C@@H](C)[C@](O)(C=O)[C@H]2O[C@@H]2O[C@@H](CO)[C@H](O)[C@@H](O)[C@@H]2NC)[C@@H](N/C(N)=N\[H])[C@@H]1O [Streptomycin]
[3]
  Ratio of Green/Red fluorescence, Primary screening: 6.72
  Ratio of Green/Red fluorescence, Rescreening (first column): 6.93
  Ratio of Green/Red fluorescence, Rescreening (second column): 6.76
  viability at 50 µM: 45%
[4]; 30 minutes
  percent killed, sensitive strain W3110: 29%
  percent killed, resistant strain KTE181: 0%
[4]; streptomycin 100 μg/mL
  cut-off (averaged proportion of killed cells) for resistant strains: −0.1
  cut-off (averaged proportion of killed cells) for susceptible strains: −0.6
  cut-off (averaged proportion of killed cells) for intermediate resistance: −0.5

## COc1cc(Cc2cnc(N)nc2N)cc(OC)c1OC [trimethoprim]
[4]; 30 minutes
  percent killed, sensitive strain W3110: 47%
  percent killed, resistant strain KTE181: 1%
[4]; 30 minutes, trimethoprim 25 μg/mL
  percent killed, resistant strain CFT073: 22%
[4]; streptomycin 100 μg/mL
  cut-off (averaged proportion of killed cells) for resistant strains: -0.2
  cut-off (averaged proportion of killed cells) for susceptible strains: −0.5

## CCN1CCN(C(=O)N[C@@H](C(=O)N[C@@H]2C(=O)N3C(C(=O)O)=C(CSc4nnnn4C)CS[C@H]23)c2ccc(O)cc2)C(=O)C1=O [Cefoperazone]
[1]; [13]
  Live cell %, ten day old stationary phase culture (in brackets): 64%
[1]; [12]
  viability at 10 µg/mL: 64%
[2]
  viability at 50 µM: 37%
[3]
  Ratio of Green/Red fluorescence, Primary screening: 6.54
  Ratio of Green/Red fluorescence, Rescreening (first column): 6.32
  Ratio of Green/Red fluorescence, Rescreening (second column): 6.23
  viability at 50 µM: 34%
[5]
  sensitivity of log phase / multiplying B. burgdorferi (words, FIG. 12): very sensitive
[6]
  planktonic form cells remaining green (live): 52%
[7]; [13]
  Live cell %, round body form: 30%
[8]; 10 μg/mL, 7 days
  G/R ratio immediately after treatment: 6.60
[8]; [14]
  G/R ratio after 7 day subculture: 6.13
  G/R ratio after 15 day subculture: 6.95
  Spirochetes after 7 day subculture (microscope counting): 1.5 × 10^6
  Spirochetes after 15 day subculture (microscope counting): 5 × 10^6
[8]; Borreliella burgdorferi, 168 h, read-out: Residual viable cells (epifluorescence microscope counting)
  viability at 10 µg/mL: 61%
[9]; [14]
  Spirochetes number After 10 day subculture: 9 × 10^5
  Spirochetes number After 20 day subculture: 4 × 10^6
[9]; Borreliella burgdorferi, 168 h, read-out: Residual viable cells
  viability at 10 µg/mL: 33%

## CC(C)/N=c1\cc2n(-c3ccc(Cl)cc3)c3ccccc3nc-2cc1Nc1ccc(Cl)cc1 [Clofazimine]
[1]; [11]
  viability at 10 µg/mL: 73%
[2]
  viability at 50 µM: 45%
[3]
  Ratio of Green/Red fluorescence, Primary screening: 6.56
  Ratio of Green/Red fluorescence, Rescreening (first column): 6.23
  Ratio of Green/Red fluorescence, Rescreening (second column): 6.02
  viability at 50 µM: 32%
[5]; Borreliella burgdorferi, growing B. burgdorferi, read-out: MIC
  MIC: 6.25 µg/mL (≈ 13.2 µM)
[5]
  sensitivity of log phase / multiplying B. burgdorferi (words, FIG. 12): less potent
[10]
  MIC (previous study): 6.25 µg/mL (≈ 13.2 µM)
[7]
  viability at 50 µM: 32%
[7]; round body form, 50 μM, 7 days
  Ratios of green/red fluorescence, Primary screening: 6.29
  Ratios of green/red fluorescence, Rescreening (first column): 6.22
  Ratios of green/red fluorescence, Rescreening (second column): 6.24

## CN[C@H](CC(C)C)C(=O)N[C@H]1C(=O)N[C@@H](CC(N)=O)C(=O)N[C@H]2C(=O)N[C@H]3C(=O)N[C@H](C(=O)N[C@H](C(=O)O)c4cc(O)cc(O)c4-c4cc3ccc4O)[C@H](O)c3ccc(c(Cl)c3)Oc3cc2cc(c3O[C@@H]2O[C@H](CO)[C@@H](O)[C@H](O)[C@H]2O[C@H]2C[C@](C)(N)[C@H](O)[C@H](C)O2)Oc2ccc(cc2Cl)[C@H]1O [Vancomycin]
[1]; [11]
  viability at 10 µg/mL: 64%
[2]
  viability at 50 µM: 48%
[3]
  Ratio of Green/Red fluorescence, Primary screening: 6.65
  Ratio of Green/Red fluorescence, Rescreening (first column): 6.58
  Ratio of Green/Red fluorescence, Rescreening (second column): 6.37
  viability at 50 µM: 38%
[7]
  viability at 50 µM: 38%
